Assay results as given in patent US20240109865A1, “INDAZOLE COMPOUNDS AS KINASE INHIBITORS” (TYRA BIOSCIENCES, INC., priority 2020, published 2024).

What was measured:
[1] = molecular target: FGFR4 (Homo sapiens (Human), UniProt P22455); assay: Kinase assay, binding constants (Kd), kinase-tagged T7 phage, qPCR
Method in brief: (§1)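 Competition binding: kinase-tagged T7 phage lysates mixed with immobilized biotinylated ligand on streptavidin beads plus compound (11-point 3-fold dilution series, 0.9% DMSO final). Bound kinase eluted with free ligand and quantified by qPCR. Kd from Hill equation fit, slope fixed at −1.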

[2] = molecular target: FGFR3 (Homo sapiens (Human), UniProt P22607); assay: as above
Method in brief: as §1

[3] = molecular target: FGFR1 (Homo sapiens (Human), UniProt P11362); assay: as above
Method in brief: as §1

[4] = molecular target: FGFR2 (Homo sapiens (Human), UniProt P21802); assay: as above
Method in brief: as §1

[5] = molecular target: FGFR3 (V555M) (Homo sapiens (Human), UniProt P22607, V555M); assay: as above; details: V555M mutant
Method in brief: as §1

[6] = molecular target: FGFR1-BCR Ba/F3 cells (Homo sapiens, UniProt P11362); assay: Ba/F3 cell viability assay (CellTiter-Glo 2.0), FGFR1-BCR Ba/F3; assay type: cell-based; details: read-out: Ba/F3 Cells FGFR1 (IC50 nM), 48 hours, Cell Titer Glo 2.0
Description: (§2) Experimental Purpose: Recombinant kinase fusions are transduced into parental Ba/F3, which becomes dependent upon this constitutive kinase activity for IL3-independent survival. Inhibition of kinase activity leads to cell death, which is monitored using CellTiter-Glo® 2.0 (Promega) which measures intracellular ATP concentration that in turn serves as a marker for viability. FGFR1-BCR Ba/F3 and FGFR3-BAIAP2L1 Ba/F3 were obtained from Advanced Cellular Dynamics (Seattle, WA)
(§3) Cell Viability Assay Procedure: Cell Titer-Glo® 2.0 Luminescent cell viability assay reagent was purchased from Promega (Madison, WI). FGFR1-BCR Ba/F3 and FGFR3-BAIAP2L1 Ba/F3 cells were cultured in RPMI1640 media supplemented with 10% fetal bovine serum. Cultures were maintained at 37° C. in a humidified atmosphere of 5% C02 and 95% air.
(§4) Cells were plated in 96-well clear bottom/white plates (Corning #3903) at 10,000 cells/well in 100 μl of media, incubated overnight. The next day, test compound DMSO stock solutions were made at 10 mM and 2 μM final concentration. Compounds were then added to cells in a 9-dose, 10-fold dilution series starting at 30 μM with an HP 300e Digital Dispenser (each dose was applied in triplicate). DMSO was backfilled to each well up to 301 nL total volume of test compound+DMSO, and a total of 301 nL DMSO was added to a control/no test compound well in triplicate. The cells in cell culture plates were incubated with the compounds at 37° C. and 5% C02 for 48 hours. Then 50 μl of Cell Titer Glo 2.0 reagent was added to each well of the cell culture plates. The contents were covered from light and mixed on an orbital shaker at room temperature for 10 min. Luminescence was recorded by a Synergy H1 Microplate Reader (Biotek, Winooski, VT). Cells were assessed as a percentage of DMSO only treated control cells. Curves were plotted and IC50 values were calculated using the GraphPad Prism 8 program based on a sigmoidal dose-response equation (4 parameter).

[7] = molecular target: FGFR3-BAIAP2L1 Ba/F3 cells (Homo sapiens, UniProt P22607); assay: Ba/F3 cell viability assay (CellTiter-Glo 2.0), FGFR3-BAIAP2L1 Ba/F3; assay type: cell-based; details: for Ba/F3 FGFR1/FGFR3 Selectivity: FGFR3 > FGFR1 selectivity ratio in Ba/F3 FGFR fusion cell based assays; for IC50: read-out: Ba/F3 Cells FGFR3 (IC50 nM), FGFR3-BAIAP2L1 Ba/F3 cells, 48 hours, Cell Titer Glo 2.0
Description: as §2, §3, §4

Chain of FGFR1 (P11362 22-822): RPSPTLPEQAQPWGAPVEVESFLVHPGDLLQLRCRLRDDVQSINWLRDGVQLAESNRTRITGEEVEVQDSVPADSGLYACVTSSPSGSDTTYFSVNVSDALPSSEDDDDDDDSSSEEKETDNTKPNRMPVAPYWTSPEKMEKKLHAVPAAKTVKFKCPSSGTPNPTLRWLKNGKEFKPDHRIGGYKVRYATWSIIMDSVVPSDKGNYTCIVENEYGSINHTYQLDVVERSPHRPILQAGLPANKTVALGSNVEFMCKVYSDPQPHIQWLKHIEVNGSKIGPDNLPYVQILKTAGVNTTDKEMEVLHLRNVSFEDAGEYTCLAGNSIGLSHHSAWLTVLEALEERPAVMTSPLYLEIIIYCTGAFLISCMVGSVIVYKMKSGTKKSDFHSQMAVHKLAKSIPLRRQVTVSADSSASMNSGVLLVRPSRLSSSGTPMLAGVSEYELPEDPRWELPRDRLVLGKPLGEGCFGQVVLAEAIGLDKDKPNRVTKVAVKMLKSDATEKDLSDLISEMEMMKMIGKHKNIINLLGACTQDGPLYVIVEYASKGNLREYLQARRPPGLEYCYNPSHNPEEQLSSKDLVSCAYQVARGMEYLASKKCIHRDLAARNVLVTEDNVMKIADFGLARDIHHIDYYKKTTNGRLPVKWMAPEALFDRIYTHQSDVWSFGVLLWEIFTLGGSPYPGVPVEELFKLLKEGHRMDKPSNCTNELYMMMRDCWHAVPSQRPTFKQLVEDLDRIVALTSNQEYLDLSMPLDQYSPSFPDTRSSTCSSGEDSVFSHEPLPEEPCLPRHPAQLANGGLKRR
Chain of FGFR1-BCR Ba/F3 cells (P11362 22-822 limits assumed, change not shown): as the sequence (P11362 22-822) above
Chain of FGFR2 (P21802 22-821): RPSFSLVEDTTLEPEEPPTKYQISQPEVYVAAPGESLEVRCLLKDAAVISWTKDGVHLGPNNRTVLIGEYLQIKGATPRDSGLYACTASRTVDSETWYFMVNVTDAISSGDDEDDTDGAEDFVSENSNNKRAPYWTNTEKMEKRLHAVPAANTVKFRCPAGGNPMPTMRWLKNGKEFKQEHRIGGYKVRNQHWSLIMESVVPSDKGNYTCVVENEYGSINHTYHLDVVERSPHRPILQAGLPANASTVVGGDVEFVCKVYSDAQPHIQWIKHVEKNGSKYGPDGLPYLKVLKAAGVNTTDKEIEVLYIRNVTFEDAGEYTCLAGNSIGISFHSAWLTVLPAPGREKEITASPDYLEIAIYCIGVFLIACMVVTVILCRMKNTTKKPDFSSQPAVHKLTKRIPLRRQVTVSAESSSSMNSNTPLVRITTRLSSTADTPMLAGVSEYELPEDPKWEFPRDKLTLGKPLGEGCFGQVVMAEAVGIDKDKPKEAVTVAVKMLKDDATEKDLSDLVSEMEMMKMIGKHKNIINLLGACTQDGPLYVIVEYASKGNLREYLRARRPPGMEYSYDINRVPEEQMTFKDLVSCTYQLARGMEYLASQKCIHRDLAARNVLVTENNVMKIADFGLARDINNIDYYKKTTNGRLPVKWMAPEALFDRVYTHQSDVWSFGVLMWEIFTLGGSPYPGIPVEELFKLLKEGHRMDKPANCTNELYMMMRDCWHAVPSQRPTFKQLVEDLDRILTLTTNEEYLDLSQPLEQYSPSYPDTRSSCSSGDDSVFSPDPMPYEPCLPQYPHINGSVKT
Chain of FGFR3 (V555M) (P22607 23-806 V555M): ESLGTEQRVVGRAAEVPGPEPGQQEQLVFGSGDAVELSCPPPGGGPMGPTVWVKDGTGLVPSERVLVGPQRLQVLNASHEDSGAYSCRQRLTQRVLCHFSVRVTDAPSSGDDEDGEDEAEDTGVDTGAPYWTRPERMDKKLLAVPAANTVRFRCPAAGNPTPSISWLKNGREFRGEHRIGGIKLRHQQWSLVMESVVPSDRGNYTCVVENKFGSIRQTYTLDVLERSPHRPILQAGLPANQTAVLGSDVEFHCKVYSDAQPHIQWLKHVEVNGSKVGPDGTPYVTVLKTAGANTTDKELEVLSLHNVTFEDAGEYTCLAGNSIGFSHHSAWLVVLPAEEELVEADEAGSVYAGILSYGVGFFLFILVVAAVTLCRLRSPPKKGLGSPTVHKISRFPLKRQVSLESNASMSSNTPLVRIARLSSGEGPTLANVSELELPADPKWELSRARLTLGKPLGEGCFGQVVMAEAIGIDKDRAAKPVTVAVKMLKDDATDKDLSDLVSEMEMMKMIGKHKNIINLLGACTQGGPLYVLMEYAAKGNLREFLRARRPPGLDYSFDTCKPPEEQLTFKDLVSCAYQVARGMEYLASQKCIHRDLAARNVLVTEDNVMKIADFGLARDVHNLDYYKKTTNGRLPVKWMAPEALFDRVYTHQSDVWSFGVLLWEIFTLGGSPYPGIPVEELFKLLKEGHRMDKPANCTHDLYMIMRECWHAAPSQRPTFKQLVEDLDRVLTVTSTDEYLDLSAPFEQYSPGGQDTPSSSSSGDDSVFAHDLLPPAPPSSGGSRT
Chain of FGFR4 (P22455 22-802): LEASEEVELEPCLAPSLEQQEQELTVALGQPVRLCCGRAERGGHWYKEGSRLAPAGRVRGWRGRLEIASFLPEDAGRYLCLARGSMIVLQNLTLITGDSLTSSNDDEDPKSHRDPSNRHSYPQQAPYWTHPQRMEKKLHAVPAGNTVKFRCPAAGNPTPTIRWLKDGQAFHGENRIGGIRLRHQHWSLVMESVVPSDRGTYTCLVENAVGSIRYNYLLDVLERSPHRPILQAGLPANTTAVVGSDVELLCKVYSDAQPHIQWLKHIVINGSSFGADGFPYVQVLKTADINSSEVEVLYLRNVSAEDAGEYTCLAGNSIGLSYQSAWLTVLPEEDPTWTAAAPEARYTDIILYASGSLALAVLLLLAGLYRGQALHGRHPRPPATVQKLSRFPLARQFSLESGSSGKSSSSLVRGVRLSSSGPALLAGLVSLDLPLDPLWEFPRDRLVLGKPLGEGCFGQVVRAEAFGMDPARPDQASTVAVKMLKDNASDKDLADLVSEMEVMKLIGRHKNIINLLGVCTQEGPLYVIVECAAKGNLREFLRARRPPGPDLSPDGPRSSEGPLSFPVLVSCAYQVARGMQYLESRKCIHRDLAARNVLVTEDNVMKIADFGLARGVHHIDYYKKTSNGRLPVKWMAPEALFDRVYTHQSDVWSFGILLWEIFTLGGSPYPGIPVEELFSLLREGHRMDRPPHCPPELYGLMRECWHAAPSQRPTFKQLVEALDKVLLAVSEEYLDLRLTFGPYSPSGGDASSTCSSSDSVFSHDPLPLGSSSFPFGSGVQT
Chain of FGFR3-BAIAP2L1 Ba/F3 cells (P22607 23-806 limits assumed, change not shown): as the sequence (P22607 23-806 V555M) above, with M533V counted along it
Chain of FGFR3 (P22607 23-806): as the sequence (P22607 23-806 V555M) above, with M533V counted along it

| Structure (SMILES) | Kd [1] | Kd [2] | Kd [3] | Kd [4] | Kd [5] | IC50 [6] | Ba/F3 FGFR1/FGFR3 Selectivity [7] | IC50 [7] |
| --- | --- | --- | --- | --- | --- | --- | --- | --- |
| C[C@@H](Oc1ccc2[nH]nc(-c3ccc(N4CCNCC4=O)nc3)c2c1)c1c(Cl)cncc1Cl [Example 37, 1-[5-[5-[(1R)-1-(3,5-dichloro-4-pyridyl)ethoxy]-1H-indazol-3-yl]-2-pyridyl]piperazin-2-one] | 1 to 20 nM | 1 to 20 nM | 20 to 100 nM | 20 to 100 nM | 1 to 20 nM | 100 to 300 nM | 12 | 1 to 20 nM |
| C[C@@H](Oc1ccc2[nH]nc(-c3ccc(N4CCN(C)CC4=O)nc3)c2c1)c1c(Cl)cncc1Cl [Example 38, 1-[5-[5-[(1R)-1-(3,5-dichloro-4-pyridyl)ethoxy]-1H-indazol-3-yl]-2-pyridyl]-4-methyl-piperazin-2-one] | 1 to 20 nM | 1 to 20 nM | 20 to 100 nM | 20 to 100 nM | 1 to 20 nM | 100 to 300 nM | 21 | 1 to 20 nM |
| C[C@@H](Oc1ccc2[nH]nc(-c3ccc(N4CCN(S(C)(=O)=O)CC4=O)nc3)c2c1)c1c(Cl)cncc1Cl [Example 39, 1-[5-[5-[(1R)-1-(3,5-dichloro-4-pyridyl)ethoxy]-1H-indazol-3-yl]-2-pyridyl]-4-methylsulfonyl-piperazin-2-one] | 1 to 20 nM | 1 to 20 nM | 20 to 100 nM | 20 to 100 nM | 1 to 20 nM | 100 to 300 nM | 16 | 1 to 20 nM |
| C[C@@H](Oc1ccc2[nH]nc(-c3ccc(N4CCC5(CCC(=O)N5C)CC4)nc3)c2c1)c1c(Cl)cncc1Cl [Example 40, 8-[5-[5-[(1R)-1-(3,5-dichloro-4-pyridyl)ethoxy]-1H-indazol-3-yl]-2-pyridyl]-1-methyl-1,8-diazaspiro[4.5]decan-2-one] | 1 to 20 nM | 1 to 20 nM | 1 to 20 nM | 1 to 20 nM | 1 to 20 nM | 20 to 100 nM | 30 | 1 to 20 nM |
| C[C@@H](Oc1ccc2[nH]nc(-c3cnc(N4CCC5(CCC(=O)N5C)CC4)c(F)c3)c2c1)c1c(Cl)cncc1Cl [Example 43, 8-[5-[5-[(1R)-1-(3,5-dichloro-4-pyridyl)ethoxy]-1H-indazol-3-yl]-3-fluoro-2-pyridyl]-1-methyl-1,8-diazaspiro[4.5]decan-2-one] | 1 to 20 nM | 1 to 20 nM | 1 to 20 nM | 1 to 20 nM | 1 to 20 nM | 20 to 100 nM | 10 | 1 to 20 nM |
| C[C@@H](Oc1ccc2[nH]nc(-c3cnc(N4CCC5(CC4)C(=O)NCCN5C)c(F)c3)c2c1)c1c(Cl)cncc1Cl [Example 44, 9-[5-[5-[(1R)-1-(3,5-dichloro-4-pyridyl)ethoxy]-1H-indazol-3-yl]-3-fluoro-2-pyridyl]-1-methyl-1,4,9-triazaspiro[5.5]undecan-5-one] | 1 to 20 nM | 1 to 20 nM | 1 to 20 nM | 1 to 20 nM | 1 to 20 nM | 20 to 100 nM |  | 1 to 20 nM |
| C[C@@H](Oc1ccc2[nH]nc(-c3cnc(N4CCC5(CC4)CNC(=O)N5)nc3)c2c1)c1c(Cl)cncc1Cl [Example 53, 8-[5-[5-[(1R)-1-(3,5-dichloro-4-pyridyl)ethoxy]-1H-indazol-3-yl]pyrimidin-2-yl]-1,3,8-triazaspiro-[4.5]decan-2-one] | 1 to 20 nM | 1 to 20 nM | 20 to 100 nM | 20 to 100 nM | 1 to 20 nM | 100 to 300 nM | 11 | 20 to 100 nM |
| C[C@@H](Oc1ccc2[nH]nc(-c3cnc(N4CCC5(CCNC5=O)CC4)nc3)c2c1)c1c(Cl)cncc1Cl [Example 55, 8-[5-[5-[(1R)-1-(3,5-dichloro-4-pyridyl)ethoxy]-1H-indazol-3-yl]pyrimidin-2-yl]-2,8-diazaspiro-[4.5]decan-1-one] | 1 to 20 nM | 1 to 20 nM | 20 to 100 nM | 20 to 100 nM | 1 to 20 nM | > 300 nM | 16 | 20 to 100 nM |
| C[C@@H](Oc1ccc2[nH]nc(-c3cnc(N4CCC5(CCCN5)CC4)nc3)c2c1)c1c(Cl)cncc1Cl [Example 56, 8-[5-[5-[(1R)-1-(3,5-dichloro-4-pyridyl)ethoxy]-1H-indazol-3-yl]pyrimidin-2-yl]-1,8-diazaspiro[4.5]decane] | 1 to 20 nM | 1 to 20 nM | 1 to 20 nM | 20 to 100 nM | 1 to 20 nM | > 300 nM | 5 | 20 to 100 nM |
| C[C@@H](Oc1ccc2[nH]nc(-c3cnc(N4CCC5(CC4)CCS(=O)(=O)C5)nc3)c2c1)c1c(Cl)cncc1Cl [Example 57, 8-[5-[5-[(1R)-1-(3,5-dichloro-4-pyridyl)ethoxy]-1H-indazol-3-yl]pyrimidin-2-yl]-2λ^6-thia-8-azaspiro[4.5]decane 2,2-dioxide] | 1 to 20 nM | 1 to 20 nM | 20 to 100 nM | 20 to 100 nM | 1 to 20 nM | 100 to 300 nM | 15 | 1 to 20 nM |
| C[C@@H](Oc1ccc2[nH]nc(-c3cnc(N4CCC5(CC4)C(=O)NCCN5C)nc3)c2c1)c1c(Cl)cncc1Cl [Example 58, 9-[5-[5-[(1R)-1-(3,5-dichloro-4-pyridyl)ethoxy]-1H-indazol-3-yl]pyrimidin-2-yl]-1-methyl-1,4,9-triazaspiro[5.5]undecan-5-one] | 1 to 20 nM | 1 to 20 nM | 20 to 100 nM | 20 to 100 nM | 1 to 20 nM | 100 to 300 nM | 11 | 20 to 100 nM |
| C[C@@H](Oc1ccc2[nH]nc(-c3cnc(N4CCCN(C(N)=O)CC4)nc3)c2c1)c1c(Cl)cncc1Cl [Example 62, 4-[5-[5-[(1R)-1-(3,5-Dichloro-4-pyridyl)ethoxy]-1H-indazol-3-yl]pyrimidin-2-yl]-1,4-diazepane-1-carboxamide] | 1 to 20 nM | 1 to 20 nM | 20 to 100 nM | 20 to 100 nM | 1 to 20 nM | > 300 nM | 8 | 20 to 100 nM |
| C[C@@H](Oc1ccc2[nH]nc(-c3cnc(N4CCCN(S(C)(=O)=O)CC4)nc3)c2c1)c1c(Cl)cncc1Cl [Example 63, 5-[(1R)-1-(3,5-Dichloro-4-pyridyl)ethoxy]-3-[2-(4-methylsulfonyl-1,4-diazepan-1-yl)pyrimidin-5-yl]-1H-indazole] | 1 to 20 nM | 1 to 20 nM | 20 to 100 nM | 20 to 100 nM | 1 to 20 nM | > 300 nM | 16 | 20 to 100 nM |
| C[C@@H](Oc1ccc2[nH]nc(-c3cnn(C4CCNCC4)c3)c2c1)c1c(Cl)cncc1Cl [Example 64, 5-[(1R)-1-(3,5-dichloro-4-pyridyl)ethoxy]-3-[1-(4-piperidyl)pyrazol-4-yl]-1H-indazole] | 1 to 20 nM | 1 to 20 nM | 1 to 20 nM | 1 to 20 nM | 1 to 20 nM | 100 to 300 nM | 16 | 1 to 20 nM |
| C[C@@H](Oc1ccc2[nH]nc(-c3cnn(C4CCN(C(=O)N(C)C)CC4)c3)c2c1)c1c(Cl)cncc1Cl [Example 67, 4-[4-[5-[(1R)-1-(3,5-dichloro-4-pyridyl)ethoxy]-1H-indazol-3-yl]pyrazol-1-yl]-N,N-dimethyl-piperidine-1-carboxamide] | 1 to 20 nM | 1 to 20 nM | 1 to 20 nM | 1 to 20 nM | 1 to 20 nM | 20 to 100 nM | 12 | 1 to 20 nM |
| C[C@@H](Oc1ccc2[nH]nc(-c3cnn(C4CCN(C(N)=O)CC4)c3)c2c1)c1c(Cl)cncc1Cl [Example 68, 4-[4-[5-[(1R)-1-(3,5-dichloro-4-pyridyl)ethoxy]-1H-indazol-3-yl]pyrazol-1-yl]piperidine-1-carboxamide] | 1 to 20 nM | 1 to 20 nM | 1 to 20 nM | 1 to 20 nM | 1 to 20 nM | 100 to 300 nM |  | 1 to 20 nM |
